Measured values published in ChEMBL document CHEMBL5120855, “Potent 2,3-dihydrophthalazine-1,4-dione derivatives as dual inhibitors for mono-ADP-ribosyltransferases PARP10 and PARP15” (Eur J Med Chem, 2022).

Legend:
[1] = target: T1, Protein mono-ADP-ribosyltransferase PARP10 (Homo sapiens, UniProt Q53GL7); assay: Inhibition of human PARP-10 using NAD+ as substrate incubated for 10 mins by fluorescence based analysis
T1 sequence (Q53GL7 whole entry): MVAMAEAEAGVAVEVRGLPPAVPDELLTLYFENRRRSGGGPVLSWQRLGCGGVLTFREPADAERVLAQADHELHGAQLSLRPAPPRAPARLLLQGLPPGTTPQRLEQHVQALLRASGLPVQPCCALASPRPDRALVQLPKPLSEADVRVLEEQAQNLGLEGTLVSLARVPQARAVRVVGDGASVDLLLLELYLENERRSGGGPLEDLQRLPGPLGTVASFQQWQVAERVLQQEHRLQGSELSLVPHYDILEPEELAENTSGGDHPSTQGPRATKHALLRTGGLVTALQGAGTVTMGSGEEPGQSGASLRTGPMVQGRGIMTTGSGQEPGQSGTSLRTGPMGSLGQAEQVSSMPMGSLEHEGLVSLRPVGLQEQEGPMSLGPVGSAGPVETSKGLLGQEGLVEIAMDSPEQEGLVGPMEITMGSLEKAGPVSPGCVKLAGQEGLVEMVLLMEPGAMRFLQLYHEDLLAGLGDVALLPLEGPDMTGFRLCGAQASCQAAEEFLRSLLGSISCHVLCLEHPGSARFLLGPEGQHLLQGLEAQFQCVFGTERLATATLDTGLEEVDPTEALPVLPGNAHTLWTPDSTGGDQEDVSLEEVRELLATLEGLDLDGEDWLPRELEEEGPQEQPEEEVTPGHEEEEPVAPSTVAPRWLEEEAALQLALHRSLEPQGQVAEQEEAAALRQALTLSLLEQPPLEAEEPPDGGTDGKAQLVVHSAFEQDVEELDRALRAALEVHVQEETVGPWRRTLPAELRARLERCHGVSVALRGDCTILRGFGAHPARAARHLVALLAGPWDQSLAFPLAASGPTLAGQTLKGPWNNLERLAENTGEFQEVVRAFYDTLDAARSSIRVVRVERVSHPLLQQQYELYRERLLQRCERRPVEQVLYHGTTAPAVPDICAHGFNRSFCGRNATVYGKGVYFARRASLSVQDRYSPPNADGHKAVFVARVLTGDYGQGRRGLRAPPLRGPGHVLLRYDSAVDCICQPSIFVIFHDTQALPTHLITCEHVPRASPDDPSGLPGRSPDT

[2] = target: T2, Protein mono-ADP-ribosyltransferase PARP15 (Homo sapiens, UniProt Q460N3); assay: Inhibition of human N-terminal 6His-tagged PARP15 (460 to 656 residues) expressed in Escherichia coli Rosetta2 (DE3) cells using NAD+ as substrate incubated for 10 mins by fluorescence based analysis
T2 sequence (Q460N3 whole entry): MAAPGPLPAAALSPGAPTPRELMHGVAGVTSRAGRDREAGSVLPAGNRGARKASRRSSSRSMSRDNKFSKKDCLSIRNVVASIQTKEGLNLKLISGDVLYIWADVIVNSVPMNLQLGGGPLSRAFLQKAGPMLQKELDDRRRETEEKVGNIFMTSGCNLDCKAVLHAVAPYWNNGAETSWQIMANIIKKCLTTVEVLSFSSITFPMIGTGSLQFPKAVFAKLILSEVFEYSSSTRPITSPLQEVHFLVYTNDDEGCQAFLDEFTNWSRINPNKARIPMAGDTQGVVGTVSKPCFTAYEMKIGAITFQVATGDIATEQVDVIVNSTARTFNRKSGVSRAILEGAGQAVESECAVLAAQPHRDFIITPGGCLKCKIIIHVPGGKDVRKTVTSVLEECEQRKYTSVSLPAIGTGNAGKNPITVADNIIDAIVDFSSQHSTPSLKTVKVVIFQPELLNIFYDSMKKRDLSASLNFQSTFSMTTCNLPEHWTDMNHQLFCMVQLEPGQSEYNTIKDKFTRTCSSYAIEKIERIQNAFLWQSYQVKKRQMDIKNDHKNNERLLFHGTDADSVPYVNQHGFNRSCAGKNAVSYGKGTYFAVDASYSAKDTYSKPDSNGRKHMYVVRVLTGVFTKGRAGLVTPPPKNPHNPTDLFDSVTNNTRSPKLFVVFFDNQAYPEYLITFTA

[3] = target: Protein mono-ADP-ribosyltransferase PARP14 (Homo sapiens, UniProt Q460N5); assay: Inhibition of human PARP14 using NAD+ as substrate incubated for 10 mins by fluorescence based analysis
Sequence of Protein mono-ADP-ribosyltransferase PARP14 (Q460N5 whole entry): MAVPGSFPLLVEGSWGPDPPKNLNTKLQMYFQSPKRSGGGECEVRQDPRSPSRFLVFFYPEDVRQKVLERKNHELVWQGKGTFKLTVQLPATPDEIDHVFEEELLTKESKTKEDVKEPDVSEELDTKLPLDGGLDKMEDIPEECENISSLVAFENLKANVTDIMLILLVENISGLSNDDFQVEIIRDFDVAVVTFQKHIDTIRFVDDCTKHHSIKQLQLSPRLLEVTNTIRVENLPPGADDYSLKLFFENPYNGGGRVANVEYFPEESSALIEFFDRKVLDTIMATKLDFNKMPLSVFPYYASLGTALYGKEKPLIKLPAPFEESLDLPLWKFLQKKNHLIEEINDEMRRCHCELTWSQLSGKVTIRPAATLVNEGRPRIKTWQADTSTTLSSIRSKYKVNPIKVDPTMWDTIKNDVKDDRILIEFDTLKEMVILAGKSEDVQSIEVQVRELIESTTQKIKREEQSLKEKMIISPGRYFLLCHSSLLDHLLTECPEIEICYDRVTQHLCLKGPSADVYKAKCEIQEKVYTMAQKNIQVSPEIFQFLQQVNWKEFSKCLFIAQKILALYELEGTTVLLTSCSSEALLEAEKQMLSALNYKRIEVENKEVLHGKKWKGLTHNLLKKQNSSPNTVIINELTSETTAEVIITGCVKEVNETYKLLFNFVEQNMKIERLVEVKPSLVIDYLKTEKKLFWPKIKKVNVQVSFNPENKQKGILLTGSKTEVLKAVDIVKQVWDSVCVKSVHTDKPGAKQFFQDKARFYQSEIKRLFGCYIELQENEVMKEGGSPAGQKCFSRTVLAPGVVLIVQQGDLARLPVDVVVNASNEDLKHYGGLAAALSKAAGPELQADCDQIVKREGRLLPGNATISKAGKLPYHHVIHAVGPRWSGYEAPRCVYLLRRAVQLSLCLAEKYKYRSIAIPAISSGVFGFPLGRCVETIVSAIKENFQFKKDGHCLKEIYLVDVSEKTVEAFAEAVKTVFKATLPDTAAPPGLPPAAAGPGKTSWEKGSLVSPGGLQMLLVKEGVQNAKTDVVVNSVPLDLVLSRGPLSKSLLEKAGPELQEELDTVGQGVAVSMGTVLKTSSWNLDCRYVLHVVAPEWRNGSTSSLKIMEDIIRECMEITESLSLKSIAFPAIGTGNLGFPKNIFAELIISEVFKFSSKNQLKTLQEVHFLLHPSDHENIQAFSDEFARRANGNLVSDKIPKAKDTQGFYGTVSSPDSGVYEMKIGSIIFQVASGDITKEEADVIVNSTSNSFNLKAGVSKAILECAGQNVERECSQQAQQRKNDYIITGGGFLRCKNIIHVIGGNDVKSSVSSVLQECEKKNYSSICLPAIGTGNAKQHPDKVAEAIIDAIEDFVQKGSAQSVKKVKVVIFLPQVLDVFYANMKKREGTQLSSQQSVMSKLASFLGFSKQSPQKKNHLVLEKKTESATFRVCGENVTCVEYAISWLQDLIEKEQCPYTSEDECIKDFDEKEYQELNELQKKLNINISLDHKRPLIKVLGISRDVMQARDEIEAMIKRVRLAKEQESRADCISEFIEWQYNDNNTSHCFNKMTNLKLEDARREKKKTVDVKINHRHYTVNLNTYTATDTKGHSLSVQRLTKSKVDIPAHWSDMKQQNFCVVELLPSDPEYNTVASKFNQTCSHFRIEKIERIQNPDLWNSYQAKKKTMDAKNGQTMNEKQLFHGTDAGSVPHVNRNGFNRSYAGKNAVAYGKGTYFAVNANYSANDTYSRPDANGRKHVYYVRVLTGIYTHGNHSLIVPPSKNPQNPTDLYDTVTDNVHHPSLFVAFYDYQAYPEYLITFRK

[4] = target: Poly [ADP-ribose] polymerase 2 (Homo sapiens, UniProt Q9UGN5); assay: Inhibition of human PARP2 using NAD+ as substrate incubated for 10 mins by fluorescence based analysis
Sequence of Poly [ADP-ribose] polymerase 2 (Q9UGN5 whole entry, the tested form may be a part): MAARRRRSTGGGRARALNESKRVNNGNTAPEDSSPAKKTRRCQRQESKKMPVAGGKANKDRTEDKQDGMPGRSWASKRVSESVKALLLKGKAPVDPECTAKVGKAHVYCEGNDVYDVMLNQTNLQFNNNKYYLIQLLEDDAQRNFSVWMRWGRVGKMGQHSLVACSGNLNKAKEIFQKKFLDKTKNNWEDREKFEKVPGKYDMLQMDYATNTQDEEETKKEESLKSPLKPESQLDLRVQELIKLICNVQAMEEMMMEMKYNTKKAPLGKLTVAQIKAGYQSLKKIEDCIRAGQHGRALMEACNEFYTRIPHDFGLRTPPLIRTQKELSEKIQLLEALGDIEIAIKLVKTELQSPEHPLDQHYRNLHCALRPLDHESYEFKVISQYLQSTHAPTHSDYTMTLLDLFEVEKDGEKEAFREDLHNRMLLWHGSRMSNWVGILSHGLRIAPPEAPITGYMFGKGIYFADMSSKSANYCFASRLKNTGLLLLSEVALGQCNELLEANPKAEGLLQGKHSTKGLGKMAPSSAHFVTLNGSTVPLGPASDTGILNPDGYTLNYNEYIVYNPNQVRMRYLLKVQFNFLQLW

[5] = target: T3, Poly [ADP-ribose] polymerase tankyrase-2 (Homo sapiens, UniProt Q9H2K2); assay: Inhibition of human N-terminal 6His-tagged TNKS2 (1030 to 1317 residues) expressed in Escherichia coli Rosetta2 (DE3) cells using NAD+ as substrate incubated for 10 mins by fluorescence based analysis
T3 sequence (Q9H2K2 whole entry): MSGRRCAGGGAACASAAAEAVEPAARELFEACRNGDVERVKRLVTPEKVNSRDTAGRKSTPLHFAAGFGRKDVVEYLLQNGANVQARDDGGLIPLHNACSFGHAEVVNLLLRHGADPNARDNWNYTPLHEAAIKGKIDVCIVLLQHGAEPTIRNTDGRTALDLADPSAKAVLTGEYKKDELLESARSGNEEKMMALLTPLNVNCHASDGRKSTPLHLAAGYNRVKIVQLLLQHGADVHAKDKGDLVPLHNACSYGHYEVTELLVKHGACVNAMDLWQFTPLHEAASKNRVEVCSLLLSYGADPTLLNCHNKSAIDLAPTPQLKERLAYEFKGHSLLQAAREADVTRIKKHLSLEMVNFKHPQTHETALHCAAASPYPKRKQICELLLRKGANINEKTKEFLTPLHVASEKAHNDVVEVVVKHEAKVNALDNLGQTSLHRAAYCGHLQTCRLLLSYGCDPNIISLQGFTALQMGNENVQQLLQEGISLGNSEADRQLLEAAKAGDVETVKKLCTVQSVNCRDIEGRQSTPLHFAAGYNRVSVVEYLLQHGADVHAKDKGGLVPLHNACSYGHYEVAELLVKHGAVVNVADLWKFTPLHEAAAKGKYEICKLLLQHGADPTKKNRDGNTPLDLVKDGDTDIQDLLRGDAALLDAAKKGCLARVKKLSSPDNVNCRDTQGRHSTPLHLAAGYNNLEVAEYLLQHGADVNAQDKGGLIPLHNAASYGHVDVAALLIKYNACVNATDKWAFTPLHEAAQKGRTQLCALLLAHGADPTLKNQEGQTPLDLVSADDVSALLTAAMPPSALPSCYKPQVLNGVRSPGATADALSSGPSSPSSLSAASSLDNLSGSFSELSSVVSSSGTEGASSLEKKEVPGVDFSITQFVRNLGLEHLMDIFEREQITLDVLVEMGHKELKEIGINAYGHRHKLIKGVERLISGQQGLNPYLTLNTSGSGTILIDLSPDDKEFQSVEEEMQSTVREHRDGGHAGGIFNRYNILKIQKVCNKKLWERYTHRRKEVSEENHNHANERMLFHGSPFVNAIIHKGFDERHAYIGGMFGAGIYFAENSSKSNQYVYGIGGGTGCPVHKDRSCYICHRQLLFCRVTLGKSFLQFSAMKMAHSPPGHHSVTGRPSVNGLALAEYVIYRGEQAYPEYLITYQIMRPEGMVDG

HEK-293T [6] = assay: Cytotoxicity against HEK293T cells assessed as reduction in cell viability at 10 uM measured after 24 hrs by WST-1 assay; format: toxicity, cell-based; conditions: human
HeLa = assay: Rescue of cell viability in human HeLa cells expressing wild type PARP10 at upto 10 uM incubated for 10 to 12 days by methylene blue dye based colony formation assay; format: functional
HEK-293T [7] = assay: Cytotoxicity against HEK293T cells assessed as reduction in cell viability at 100 uM measured after 24 hrs by WST-1 assay; format: toxicity, cell-based; conditions: human
[8] = target: T2, Protein mono-ADP-ribosyltransferase PARP15; assay: Inhibition of PARP15 (unknown origin)

Row | IC50 [1] | IC50 [2] | IC50 [3] | IC50 [4] | IC50 [5] | EC50 (HeLa) | IC50 [8] | SMILES | Activity (HEK-293T [6]) | Activity (HEK-293T [7])
1 | > 10 µM | > 10 µM | > 10 µM | > 100 µM | > 100 µM |  |  | NC(=O)c1ccc(OCC2CCCCC2)cc1OCc1ccccn1 | Non-Toxic | 
2 | 1.6 µM | 2.4 µM | > 10 µM | > 100 µM | > 100 µM |  |  | NC(=O)c1ccc(OCc2cncs2)cc1 | Non-Toxic | 
3 | 1.5 µM | 0.6 µM | > 10 µM | > 100 µM | > 100 µM |  |  | NC(=O)c1ccc(OCc2cccc(Br)c2)cc1F | Non-Toxic | 
4 | 1.2 µM | 1.3 µM | > 100 µM | > 100 µM | > 100 µM |  |  | O=c1[nH][nH]c(=O)c2cc(OCc3cccc(Br)c3)ccc12 | Non-Toxic | 
5 | 0.15 µM | 0.37 µM |  |  |  | 1.6 µM |  | O=c1[nH][nH]c(=O)c2cc(OCc3ccccc3F)ccc12 | Non-Toxic | 
6 | 1.9 µM | 2.6 µM | > 10 µM | > 100 µM | > 100 µM |  |  | COc1cc(OCc2ccccc2F)ccc1C(N)=O | Non-Toxic | Toxic
7 | > 10 µM | 2.5 µM | > 100 µM | > 100 µM | > 100 µM |  |  | COc1cc(OCc2cccc(Br)c2)ccc1C(N)=O | Non-Toxic | 
8 | 5 µM | 2.2 µM | > 100 µM | > 100 µM | > 100 µM |  |  | COc1cc(OCc2cccc3ccccc23)ccc1C(N)=O | Non-Toxic | 
9 | 4.4 µM | 5 µM | > 100 µM | > 100 µM | > 100 µM |  |  | COc1cc(OCC2CCCCC2)ccc1C(N)=O | Non-Toxic | 
10 | 8.2 µM | > 10 µM | 6.8 µM | > 100 µM | > 100 µM |  |  | COc1ccccc1COc1ccc(C(N)=O)c(F)c1 | Non-Toxic | 
11 | 0.62 µM | 6 µM | > 10 µM | > 100 µM | > 100 µM |  |  | NC(=O)c1ccc(OCC2CCC2)cc1F | Non-Toxic | 

More lines, now with the values behind:

Row | SMILES | IC50 [1] | IC50 [2] | IC50 [3] | IC50 [4] | IC50 [5] | EC50 (HeLa) | IC50 [8] | Activity (HEK-293T [6]) | Activity (HEK-293T [7])
12 | O=c1[nH][nH]c(=O)c2cc(OCC3CCCC3)ccc12 | 0.13 µM | 0.32 µM | > 10 µM | > 100 µM | > 100 µM |  |  | Non-Toxic | 
13 | NC(=O)c1ccc(OCC2CCC2)cc1OCCN1CCNCC1 | > 10 µM | > 10 µM | > 10 µM | > 100 µM | > 100 µM |  |  | Non-Toxic | 
14 | NC(=O)c1ccc(OCC2CCCCC2)cc1F | 0.96 µM | > 10 µM | > 10 µM | > 100 µM | > 100 µM |  |  | Non-Toxic | 
15 | NC(=O)c1ccc(OCC2CCCC2)cc1 | 0.59 µM | 3.8 µM | > 10 µM | > 100 µM | > 100 µM |  |  | Non-Toxic | 
16 | NC(=O)c1ccc(OCC2CCCCC2)cc1 | 1.7 µM | 3.6 µM | > 100 µM | > 100 µM | > 100 µM |  |  | Non-Toxic | 
17 | O=c1[nH][nH]c(=O)c2cc(OCC3CCCCC3)ccc12 | 0.14 µM | 0.4 µM |  |  |  | 1.5 µM |  | Non-Toxic | 
18 | NC(=O)c1ccc(OCC2CC2)cc1 | 0.6 µM | 4.8 µM | > 10 µM | 53 µM | > 100 µM |  |  | Non-Toxic | 
19 | O=c1[nH][nH]c(=O)c2cc(OCC3CCC3)ccc12 | 0.16 µM | 0.37 µM | > 10 µM | > 100 µM | > 100 µM |  |  | Non-Toxic | 
20 | O=c1[nH][nH]c(=O)c2cc(OCc3ccsc3)ccc12 | 0.16 µM | 0.4 µM |  |  |  | 0.95 µM |  | Non-Toxic | 
21 | Cc1cccc(C(=O)N[C@H](C(N)=O)C(=O)c2ccc3c(=O)[nH][nH]c(=O)c3c2)c1 |  |  |  |  |  |  | 0.2 µM |  | 
22 | O=c1[nH][nH]c(=O)c2cc(OCC3CC3)ccc12 | 0.31 µM | 1.2 µM | > 10 µM | > 100 µM | > 100 µM |  |  | Non-Toxic | 
